Measured values taken from ChEMBL document CHEMBL5113470, “Regioselective pyrrolizidine bis-spirooxindoles as efficient anti-amyloidogenic agents” (2022).
Calls of active or inactive are those of the source. No cut-off for these calls is given here.

Key:
Gallus gallus [1] = organism: Gallus gallus; test: Inhibition of Hen egg white lysozyme fibril formation assessed as shorter fibrils after day 7 by TEM analysis
Gallus gallus [2] = organism: Gallus gallus; test: Inhibition of Hen egg white lysozyme fibril formation assessed as decrease in conformational transition from alpha-helix to beta-sheet after 7 days by Raman spectroscopic assay; conditions: time 7.0 day
Gallus gallus [3] = organism: Gallus gallus; test: Inhibition of Hen egg white lysozyme fibril formation by Circular dichroism
[4] = Inhibition of HEWL fibril-induced toxicity in human HEK cells assessed as cell viability by MTT assay ( Rvb = 55.2 +/- 7.2%); assay type: functional
Gallus gallus [5] = organism: Gallus gallus; test: Inhibition of Hen egg white lysozyme fibril formation by Thioflavin T spectroscopic assay relative to control; parameters: concentration or dose not given beside the values; conditions: dose or concentration not given here

Structure (SMILES) | inhibition (Gallus gallus [1]) | inhibition (Gallus gallus [2]) | inhibition (Gallus gallus [3]) | Activity [4] [%] | inhibition (Gallus gallus [5]) [%]
COc1cccc(C(=O)[C@@H]2C3CCCN3[C@@]3(C(=O)Nc4ccccc43)[C@@]23C(=O)Nc2ccccc23)c1 (some centres undefined) | Active | Active | Active | 64.8 | 20.3
CC[C@H]1CN2CC[C@]3(C(=O)Nc4ccccc43)[C@@H]2C[C@@H]1/C(=C\OC)C(=O)OC [RHYNCHOPHYLLINE] | – | – | – | 77 | 37.6
CC[C@H]1CN2CC[C@@]3(C(=O)Nc4ccccc43)[C@@H]2C[C@@H]1/C(=C\OC)C(=O)OC | – | – | – | – | 30.4
O=C(c1ccccc1)[C@@H]1C2CCCN2[C@@]2(C(=O)Nc3ccccc32)[C@@]12C(=O)Nc1ccccc12 (some centres undefined) | Active | Active | Active | 59.6 | 22.7
O=C(O[C@@H]1Cc2c(O)cc(O)cc2O[C@@H]1c1cc(O)c(O)c(O)c1)c1cc(O)c(O)c(O)c1 | – | – | – | – | 24.4
COc1ccc(C(=O)[C@@H]2C3CCCN3[C@@]3(C(=O)Nc4ccccc43)[C@@]23C(=O)Nc2ccccc23)cc1 (some centres undefined) | Active | Active | Active | 47.7 | 45.3
